Measured values reported in patent publication US5585352A, “Method of treating septic shock using thymosin-α 1” (The George Washington University Medical Center, priority 1994, dated 1996).
No end group written: not given here.

Assays:
endotoxic mice = assay: Survival of Swiss Webster mice following lethal endotoxin dose and Tα1; format: in vivo
Procedure: (§1) Swiss-Webster mice 4-6 weeks of age (20-25 g) were divided into 2 groups: endotoxic mice (endotoxin 60 mg/kg i.p. in acute treatment) and endotoxic mice treated with 3 injections of 100 μg Tα1 (5 minutes, 2 and 4 hours post administration of the endotoxin).
Using the same materials and methods as in example 1, the time and dose-dependency of the protective effect of Tα1 on endotoxin lethality were studied.

malonyldialdehyde [1] = assay: Blood hydroperoxide (malonyldialdehyde) levels in mice treated with lethal doses of endotoxin; format: in vivo, Swiss-Webster mice
Procedure: as §1
*Whole blood samples (0.5 ml) were obtained by tail bleds 1 hour after
endotoxin administration

glutathione (RBC GSH) [2] = assay: Erythrocyte glutathione levels in mice treated with lethal doses of endotoxin; format: in vivo, Swiss-Webster mice
Procedure: as §1
*Total erythrocyte glutathione, 98% of which is in the reduced form (GSH)
was determined by the enzymatic "cyclic method."-

[3] = tested on: Cerebellar cortex cyclic GMP; assay: cGMP cerebellar levels in mice treated with lethal doses of endotoxin; format: in vivo, Swiss-Webster mice
Procedure: as §1

TNF-α = assay: Serum TNF-α levels in mice treated with lethal doses of endotoxin; format: in vivo, Swiss-Webster mice
Procedure: as §1
(§2) *Mice were pretreated with SOD (super oxide dismatase), 30 minutes before
(§3) endotoxin administration XX blood for determined of TNFα and
(§4) IL1α levels was collected 1 hr after endotoxin administration.
(§5) Using the same methods and materials as in examples 1 and 2, the effect which Tα1 has on blood levels of IL-1α, TNF-α, PAG, Txβ2 and 6-keto-PGF1 α, which are pathological mediators of endotoxin induced lethality, was studied.

IL-1α = assay: Serum IL-1α levels in mice treated with lethal doses of endotoxin; format: in vivo, Swiss-Webster mice
Procedure: as §1, §2, §3, §4, §5

PAF = PAF blood levels in mice after lethal dose of endotoxin; format: in vivo, Swiss-Webster mice
Procedure: as §1, §5

Txβ2 = Txβ2 plasma levels in mice after lethal dose of endotoxin; format: in vivo, Swiss-Webster mice
Procedure: as §1, §5

6-keto-PGF1α = 6-keto-PGF1α plasma levels in mice after lethal dose of endotoxin; format: in vivo, Swiss-Webster mice
Procedure: as §1, §5

Rats with Septic Shock = assay: Survival in septic shock model in rats (peritonitis by cecal ligation and puncture); format: in vivo, Sprague-Dawley rats; settings: for Number of Rats Alive, 24 h / Number of Rats Alive, 48 h / Number of Rats Alive, 72 h: Rats with Septic Shock + Tα1 1 mg/rat × 3, 10 alive at 0 h
Source text: (§6) Using a septic shock model in rats (Sprague-Dawley, male, 200-225 g each), the effect of thymosin α1 alone and together with antibiotics was studied. Peritonitis was induced in rats in the following way. A 1-cm incision was made into the peritoneal which exposed the cecum. A tight ligature was placed around the cecum with 4-0 suture distal to the insertion of the small bowel, forming an area of devitalized tissue while maintaining bowel continuity. A puncture wound was made with 16-gauge needle into the anti-mesenteric surface of the cecum and a small amount of fecal contents was expressed through the wound. The cecum was replaced into the peritoneal cavity, and the anterior peritoneal wall and skin were closed with surgical staples. Each animal was given a bolus of normal saline (15 ml/kg) for hydration and allowed to recover overnight.
*gentamicin sulfate, 1 mg/rat
(§7) **At 0 hr, 2 hr, and 4 hr post induction of peritonitis

TNFα = TNFα levels in a septic shock model in rat; format: in vivo, Sprague-Dawley rats; settings: Rats with Septic Shock + Tα1 1 mg/rat × 3
Source text: as §6, §7

IL1 α = assay: IL1α levels in a septic shock model in rat; format: in vivo, Sprague-Dawley rats; settings: Rats with Septic Shock + Tα1 1 mg/rat × 3
Source text: as §6, §7

malonyldialdehyde [4] = assay: Lipid peroxidation (blood malonyldialdehyde) in a septic shock model in rat; format: in vivo, Sprague-Dawley rats; settings: Rats with Septic + Tα1 1 mg/rat × 3
Source text: as §6, §7

glutathione (RBC GSH) [5] = assay: Glutathione levels in a rat septic shock model; format: in vivo, Sprague-Dawley rats; settings: Rats with Septic Shock + Tα1 mg/rat × 3
Source text: as §6, §7

6-keto-PGF1 = 6-keto-PGF1 levels in a septic shock model in rat; format: in vivo, Sprague-Dawley rats; settings: Rats with Septic Shock + Tα1 1 mg/rat × 3
Source text: as §6, §7

T × β2 = assay: Txβ2 levels in a septic shock model in rat; format: in vivo, Sprague-Dawley rats; settings: Rats with Septic Shock + Tα1 1 mg/rat × 3
Source text: as §6, §7

[6] = tested on: blood free radical levels; assay: Blood free radical levels; format: in vivo; settings: compared with SOD
[7] = Table I, Endotoxin 60 mg/kg + Tα1 100 μg 3×, 7 alive at 0 hrs
[8] = Table II, Endotoxin 60 mg/kg + Tα1 100 μg 3×, 8 alive at 0 hr.
[9] = Table VIII, Tα1 10 μg, 3×, immediately following, 2 and 4 hrs. after endotoxin, 8 alive at 0 hrs
[10] = Table VIII, Tα1 100 μg, 3×, 2, 4 and 6 hrs. after endotoxin, 8 alive at 0 hrs
[11] = Table VIII, Tα1 100 μg, 3×, immediately following, 2 and 4 hrs. after endotoxin, 8 alive at 0 hrs
[12] = during sepsis, species not given
[13] = Table VI, serum, Endotoxin 60 mg/kg + Tα1
[14] = Table VII, serum, pretreatment with SOD 3.3 × 10^4 μ/kg (30 minutes before endotoxin) or Tα1 100 μg/mice, blood 1 hr after endotoxin
[15] = Table XIV, Endotoxin 60 mg/kg + Tα1 100 μg administered immediately following
[16] = after administration of a lethal dose of endotoxin
[17] = Table IX, Endotoxin 60 mg/kg + Tα1 100 μg administered immediately following
[18] = Table X, Endotoxin 60 mg/kg + Tα1 100 μg administered immediately following
[19] = Table XIII, Endotoxin 60 mg/kg + Tα1 100 μg administered immediately following
[20] = Table XI, Endotoxin 60 mg/kg + Tα1 100 μg administered immediately following
[21] = Table XII, Endotoxin 60 mg/kg + Tα1 100 μg administered immediately following
[22] = Table XV, rats with peritonitis, both groups got antibiotic (gentamicin sulfate, 1 mg/rat), thymosin α1 1 mg/rat × 3, 10 at 0 hr
[23] = first of two unlabelled columns
[24] = second of two unlabelled columns

Thymosin α1 (SDAAVDTSSEITTKDLKEKKEVVEEAEN; ends and bridges not checked; UniProt P06454 2-29, looked up) [Tα1, peptide originally derived from the Thymus gland, 28 amino acids; synthetic Tα1 prepared by solid phase peptide synthesis]
Number of Mice Alive, 24 hrs (endotoxic mice; Table I, Endotoxin 60 mg/kg + Tα1 100 μg 3× (5 minutes, 2 and 4 hours post endotoxin), 7 alive at 0 hrs): 7
Number of Mice Alive, 48 hrs (endotoxic mice; [7]): 7
Number of Mice Alive, 72 hrs (endotoxic mice; [7]): 7
Number of Mice Alive, 24 hr. (endotoxic mice; [8]): 8
Number of Mice Alive, 48 hr. (endotoxic mice; [8]): 8
Number of Mice Alive, 72 hr. (endotoxic mice; [8]): 8
Number of Mice Alive, 7 day (endotoxic mice; [8]): 8
Number of Mice Alive, 14 day (endotoxic mice; [8]): 8
Number of Mice Alive, 24 hrs (endotoxic mice; Table VIII, Endotoxin 60 mg/kg + Tα1 10 μg, 3×, immediately following, 2 and 4 hrs. after endotoxin, 8 alive at 0 hrs): 8
Number of Mice Alive, 24 hrs (endotoxic mice; Table VIII, Endotoxin 60 mg/kg + Tα1 100 μg, 3×, 2, 4 and 6 hrs. after endotoxin, 8 alive at 0 hrs): 8
Number of Mice Alive, 24 hrs (endotoxic mice; Table VIII, Endotoxin 60 mg/kg + Tα1 100 μg, 3×, immediately following, 2 and 4 hrs. after endotoxin, 8 alive at 0 hrs): 8
Number of Mice Alive, 48 hrs (endotoxic mice; [9]): 5
Number of Mice Alive, 72 hrs (endotoxic mice; [9]): 5
Number of Mice Alive, 96 hrs (endotoxic mice; [9]): 5
Number of Mice Alive, 120 hrs (endotoxic mice; [9]): 5
Number of Mice Alive, 48 hrs (endotoxic mice; [10]): 8
Number of Mice Alive, 72 hrs (endotoxic mice; [10]): 8
Number of Mice Alive, 96 hrs (endotoxic mice; [10]): 8
Number of Mice Alive, 120 hrs (endotoxic mice; [10]): 8
Number of Mice Alive, 48 hrs (endotoxic mice; [11]): 8
Number of Mice Alive, 72 hrs (endotoxic mice; [11]): 8
Number of Mice Alive, 96 hrs (endotoxic mice; [11]): 8
Number of Mice Alive, 120 hrs (endotoxic mice; [11]): 8
survival rate of mice treated with endotoxin (endotoxic mice; Tα1 administered 3 times post administration of endotoxin, Tables I and II): 100%
effective protective dose (endotoxic mice; administered three times, endotoxin lethality in mice): 100 µg
protective effect on endotoxin toxicity (endotoxic mice; given immediately following, 2 and 4 hours after, or 2, 4 and 6 hours after endotoxin treatment): had protective effect on endotoxin toxicity
Blood Levels of malonyldialdehyde (malonyldialdehyde [1]; Endotoxin 60 mg/kg + Tα1 100, whole blood 1 hour after endotoxin administration): 16.9 ± 1.36 nMol MDA
peroxidation of lipids in blood (malonyldialdehyde [1]; [12]): returned to normal or about normal
RBC GSH (glutathione (RBC GSH) [2]; Endotoxin 60 mg/kg + Tα1 100 μg/mouse, total erythrocyte glutathione): 1.12 ± 0.12 μmoles/ml cells
circulating blood levels of glutathione (glutathione (RBC GSH) [2]; [12]): returns circulatory gluthathine leves to normal or about normal
Cerebellar cortex cyclic GMP ([3]; Endotoxin 60 mg/kg i.p. + Tα1 100 μg): 14.6 ± 1.2 pmol per mg/protein
cerebellar cGMP levels ([3]; administration during sepsis): decreases cerebellar cGMP levels
TNF-α, 1 hr (TNF-α; [13]): 638 ± 57 pg/mL
TNF-α, 3 hr (TNF-α; [13]): 426 ± 37 pg/mL
TNF-α, 5 hr (TNF-α; [13]): 297 ± 27 pg/mL
TNF-α (TNF-α; [14]): 285 ± 23.6 pg/mL
TNF-α (serum levels), 1 hr (TNF-α; [15]): 783 pg/mL
TNF-α (serum levels), 3 hr (TNF-α; [15]): 508 pg/mL
TNF-α (serum levels), 5 hr (TNF-α; [15]): 429 pg/mL
TNF-α serum levels (TNF-α; [16]): decreased
IL-1α (serum levels), 1 hr (IL-1α; [17]): 83 ± 7.1 pg/mL
IL-1α (serum levels), 3 hr (IL-1α; [17]): 165 ± 13.7 pg/mL
IL-1 α (IL-1α; [14]): 109 ± 71 pg/mL
IL-1α serum levels (IL-1α; [16]): decreased
PAF (plasma levels), 0.5 hr (PAF; [18]): 48 ± 3 pg/mL
PAF (plasma levels), 1 hr (PAF; [18]): 136 ± 9 pg/mL
PAF (plasma levels), 2 hr (PAF; [18]): 68 ± 4 pg/mL
PAF (plasma levels), 3 hr (PAF; [18]): 32 ± 2 pg/mL
PAF (serum levels), 1 hr (PAF; [19]): 783 pg/mL
PAF (serum levels), 3 hr (PAF; [19]): 508 pg/mL
PAF (serum levels), 5 hr (PAF; [19]): 429 pg/mL
PAF plasma levels (PAF; [16]): decreased
T × β2 (plasma levels), 0.5 hr. (Txβ2; [20]): 910 ± 85 pg/mL
T × β2 (plasma levels), 2 hr (Txβ2; [20]): 530 ± 47 pg/mL
T × β2 (plasma levels), 1 hr (Txβ2; Table XI, Endotoxin 60 mg/kg + Tα1 100 μg administered immediately following, spread 185 printed): 1921 pg/mL
T × β2 (plasma levels), 3 hr (Txβ2; Table XI, Endotoxin 60 mg/kg + Tα1 100 μg administered immediately following, spread 260 printed): 391 pg/mL
Txβ2 plasma levels (Txβ2; [16]): decreased
6-keto-PGF1α (plasma levels), 0.5 hr. (6-keto-PGF1α; [21]): 224 ± 19 pg/mL
6-keto-PGF1α (plasma levels), 1 hr (6-keto-PGF1α; [21]): 745 ± 62 pg/mL
6-keto-PGF1α (plasma levels), 2 hr (6-keto-PGF1α; [21]): 341 ± 33 pg/mL
6-keto-PGF1α (plasma levels), 3 hr (6-keto-PGF1α; [21]): 205 ± 19 pg/mL
6-keto-PGF1 α plasma levels (6-keto-PGF1α; [16]): decreased
Survival of Sprague-Dawley rats, 48 hr (Rats with Septic Shock; [22]): 6
Survival of Sprague-Dawley rats, 72 hr (Rats with Septic Shock; [22]): 6
Survival of Sprague-Dawley rats, 24 hr (Rats with Septic Shock; Table XV, rats with peritonitis, both groups got antibiotic (gentamicin sulfate, 1 mg/rat), thymosin α1 1 mg/rat × 3 at 0, 2 and 4 hr post induction, 10 at 0 hr): 8
survival of rats (Rats with Septic Shock; Table XV, with antibiotic): increased the survival of rats
Number of Rats Alive, 24 h (Rats with Septic Shock; Table XX): 9
Number of Rats Alive, 48 h (Rats with Septic Shock; Table XX): 9
Number of Rats Alive, 72 h (Rats with Septic Shock; Table XX): 5
Number of Rats Alive, 24 h (Rats with Septic Shock; Table XXI): 8
Number of Rats Alive, 48 h (Rats with Septic Shock; Table XXI): 7
Number of Rats Alive, 72 h (Rats with Septic Shock; Table XXI): 3
survival rate of rats with septic shock (Rats with Septic Shock; Tables XX and XXI): increases the survival rate of rats with septic shock
TNFα (TNFα): 1231 ± 129 pg/mL
IL1 α (IL1 α): 689 ± 53 pg/mL
Blood Levels of malonyldialdehyde (malonyldialdehyde [4]; [23]): 17.1 ± 1.6 nNol MDA
Blood Levels of malonyldialdehyde (malonyldialdehyde [4]; [24]): 21.9 ± 2.3 nNol MDA
RBC GSH (glutathione (RBC GSH) [5]; [23]): 1.29 ± 0.07 μmoles/ml cells
RBC GSH (glutathione (RBC GSH) [5]; [24]): 1.20 ± 0.085 μmoles/ml cells
6-keto-PGF1 (6-keto-PGF1): 1132 ± 96 pg/mL
T × β2 (T × β2): 2353 ± 197 pg/mL
blood free radical levels [6]: reduce blood free radical levels almost as much as SOD
